US10065937B2, “FLT3 receptor antagonists” (INSERM (INSTITUT NATIONAL DE LA SANTÉ ET DE LA RECHERCHE …, priority 2014, dated 2018)

Legend:
[1] = molecular target: T1, SNAP tagged-FLT3 (Homo sapiens, UniProt P36888); assay: Tag-lite competition binding assay (Red-FL displacement, HTRF); conditions: cells expressing SNAP tagged-FLT3, 0.5 nM Red-FL
T1 construct: expressed in transfected cells
T1 sequence (P36888 27-993): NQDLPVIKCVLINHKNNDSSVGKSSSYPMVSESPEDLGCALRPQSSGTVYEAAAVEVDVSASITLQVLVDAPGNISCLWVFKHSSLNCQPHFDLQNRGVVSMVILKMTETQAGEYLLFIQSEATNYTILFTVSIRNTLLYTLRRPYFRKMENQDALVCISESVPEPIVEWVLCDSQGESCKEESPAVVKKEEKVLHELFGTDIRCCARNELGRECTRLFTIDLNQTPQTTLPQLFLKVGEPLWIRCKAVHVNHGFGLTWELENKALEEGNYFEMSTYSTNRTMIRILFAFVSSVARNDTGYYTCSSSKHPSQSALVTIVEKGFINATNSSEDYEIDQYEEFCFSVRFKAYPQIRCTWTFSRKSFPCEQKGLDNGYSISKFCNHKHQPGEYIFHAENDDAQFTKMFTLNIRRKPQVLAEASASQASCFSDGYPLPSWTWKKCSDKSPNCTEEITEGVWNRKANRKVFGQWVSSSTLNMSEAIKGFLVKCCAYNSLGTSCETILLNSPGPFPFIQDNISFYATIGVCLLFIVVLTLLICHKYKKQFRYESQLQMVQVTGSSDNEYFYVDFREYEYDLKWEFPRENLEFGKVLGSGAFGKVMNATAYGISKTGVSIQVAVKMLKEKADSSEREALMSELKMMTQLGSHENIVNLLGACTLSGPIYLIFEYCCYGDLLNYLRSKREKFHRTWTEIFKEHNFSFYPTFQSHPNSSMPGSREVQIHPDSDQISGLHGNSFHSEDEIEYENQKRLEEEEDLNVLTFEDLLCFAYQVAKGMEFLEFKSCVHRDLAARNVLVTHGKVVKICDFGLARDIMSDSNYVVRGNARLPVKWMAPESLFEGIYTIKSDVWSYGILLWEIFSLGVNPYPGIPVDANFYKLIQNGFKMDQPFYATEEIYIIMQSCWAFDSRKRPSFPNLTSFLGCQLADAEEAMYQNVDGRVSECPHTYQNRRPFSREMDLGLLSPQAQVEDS
Procedure: Covalent Labeling of Cells Expressing the SNAP Tagged-FLT3
Labelling of Adherent Cells
Cell culture medium was removed from the 96 well plates and 100 nM of SNAP-Lumi4 Tb previously diluted in the Tag-lite labelling medium, was added under 100 μl per well, and further incubated 1 h at 37° C. under 5% CO2. The excess of SNAP-Lumi4-Tb was removed by washing each well 4 times with 100 μl of Tag-lite labelling medium.
Labelling of a Batch of Cells and Cells Freezing
After removal of the cell culture medium from a flask containing adherent cells, 5 ml of Tag-lite labelling medium containing 100 nM of SNAP-Lumi4-Tb was added to the flask and incubated for 1 h at 37° C. under 5% CO2. The excess of SNAP-Lumi4-Tb was removed by washing each flask 4 times with 5 ml of Tag-lite labelling medium. Cells were detached, pelleted by centrifugation (5 min at 1,300 rpm) and suspended in a cell culture medium containing 10% DMSO. Then, cells were distributed at 5 millions cells per vial and slowly frozen to −80° C. in isopropanol then transferred in liquid nitrogen for storage.
Prior to their use, the frozen cells were thawed quickly at 37° C., the medium was removed from the vials and the cells were suspended in the Tag-lite labelling medium at a cell-density of 1 million cells/ml.
Tag-lite binding assays were performed 24 h after transfection on fresh cells. When using frozen cells, binding assays were carried out immediately after cells thawing. When the assay was carried out on adherent cells in 96-well plates, the cell density was 50,000 cells per well, while a density of 10,000 cells per well was used to carry out binding assays in suspension in 384-well small volume plates.
Competition Binding Assay
Both Red-FL and the compounds to be tested were diluted in Tag-lite labelling medium. Cells were incubated with 0.5 nM Red-FL in the presence of increasing concentrations of compounds to be tested. In the plates containing labelled cells, 50 μl (or 10 μl in 384-well plates) of Tag-lite labelling medium, 25 μl (or 5 μl in 384-well plates) of compounds to be tested were added and incubated for 1 h at Room temperature prior to the addition of 25 μl (or 5 μl in 384-well plates) of Red-FL. Plates were then incubated at room temperature for 4 h or overnight before signal detection.
(§1) Signal was detected using an advanced fluorescence microplate reader (RUBYstar, BMG Labtech) equipped with a HTRF optic module allowing a donor excitation at 337 nm and a signal collection both at 665 nm and 620 nm. A frequency of 20 flashes/well is selected for the laser excitation. The signal was collected both at 665 nm and 620 nm using the following time-resolved settings: delay 50 μs, integration time 400 μs. HTRF ratios were obtained by dividing the acceptor signal (665 nm) by the donor signal (620 nm) and multiplying this value by 10,000. The 10,000 multiplying factor is used solely for the purpose of easier data handling.
(§2) Data Analysis and Statistics
(§3) Kd values of the fluorescent ligand were determined from saturation curves of the specific binding using GraphPad Prism software (GraphPad Software, Inc., San Diego, Calif.). Ki values of the compounds were determined from binding competition experiments according to the Cheng and Prusoff equation. EC50 and IC50 values of the rh-FL and compounds were determined from sigmoidal dose-response curves using GraphPad Prism software (GraphPad Software, Inc., San Diego, Calif.).

[2] = molecular target: T2, FLT3 receptor (Homo sapiens, UniProt P36888); assay: Auto-phosphorylation competition assay on RS4-11 cells (HTRF); format: cell-based; conditions: RS4-11 cells expressing endogenous FLT3, 0.1 μM rh-FL; read-out: IC50, μM Autophosphorylation
T2 construct: Auto-phosphorylation assays were performed on RS4-11 cells that express endogenous FLT3 receptor; endogenous in cells; host or cells: RS4-11 cells
T2 sequence (P36888 27-993): T1 sequence (P36888 27-993)
Procedure: Auto-Phosphorylation Assays
Auto-phosphorylation assays were performed on RS4-11 cells that express endogenous FLT3 receptor. A density of 50,000 cells per well was used to carry out this assay in suspension in 384-well small volume plates to determine the degree of phosphorylation of FLT3. In the aim to discover antagonist compounds and to develop this assay, we were determined the efficiency of FL on RS4-11 cells.
Both rh-FL and the compounds to be tested were diluted in Tag-lite labelling medium. Cells were incubated with 0.1 μM of rh-FL in the presence of increasing concentrations of compounds to be tested. In the plates containing RS4-11 cells (5 μl/well), 5 μl of compounds to be tested were added and incubated for 1 h at Room temperature prior to the addition of 2 μl of rh-FL at 0.1 μM. After incubation of 3 minutes at room temperature of rh-FL, 4 μl of lysis buffer were added and incubated for 2 h at room temperature. A mix of anti-FLT3 and an anti-TYR-969 FLT3 antibodies labeled with Lumi4-Tb and d2 respectively (4 μl) diluted in Tag-lite labelling medium, were added on cell lysate. Plates were then incubated at room temperature for 2 h or overnight before signal detection.
as §1, §2, §3

Row | SMILES | IC50 [1] | IC50 [2]
1 | O=C(Nc1cc(Cl)ccc1O)c1cccc(S(=O)(=O)N2CCCCC2)c1 [Example 1, N-(5-chloro-2-hydroxyphenyl)-3-(piperidin-1-ylsulfonyl) benzamide] | 11.8 µM | 58 µM
2 | O=S(=O)(c1cccc(-c2nnc(-c3cc(Cl)ccc3O)[nH]2)c1)N1CCCCC1 [Example 4, 4-chloro-2-(5-(3-(piperidin-1-ylsulfonyl)phenyl)-4H-1,2,4-triazol-3-yl)phenol] | 26 µM | 20 µM
3 | O=S(=O)(c1cccc(-c2ncc(-c3cc(Cl)ccc3O)[nH]2)c1)N1CCCCC1 [Example 5, 4-chloro-2-(2-(3-(piperidin-1-ylsulfonyl)phenyl)-1H-imidazol-5-yl)phenol] | 33 µM | 17 µM
4 | NCCCN(C1CCCCC1)S(=O)(=O)c1cccc(-c2nc3cc(Cl)ccc3o2)c1 [Example 7, N-(3-aminopropyl)-3-(5-chloro-1,3-benzoxazol-2-yl)-N-cyclohexylbenzene-1-sulfonamide] | 10 µM | 63 µM
5 | O=S(=O)(c1cccc(-c2nc3cccc(O)c3[nH]2)c1)N1CCCCC1 [Example 8, 2-[3-(1-piperidylsulfonyl)phenyl]-3H-benzimidazol-4-ol] | 98 µM | 68 µM
6 | O=C(Nc1cc(Cl)ccc1-c1nnn[nH]1)c1cccc(S(=O)(=O)N2CCCCC2)c1 [Example 9, N-[5-chloro-2-(1H-1,2,3,4-tetrazol-5-yl)phenyl]-3-(piperidine-1-sulfonyl)benzamide] | 175 µM | 148 µM
7 | O=C(Nc1cccc(S(=O)(=O)N2CCCCC2)c1)c1cc(Cl)ccc1O [Example 10, 5-Chloro-2-hydroxy-N-[3-(piperidine-1sulfonyl)phenyl]benzamide] | 4.6 µM | 116 µM
8 | CN(C1CCCCCC1)S(=O)(=O)c1cccc(C(=O)Nc2cc(Cl)ccc2O)c1 [Example 11, N-(5-chloro-2-hydroxyphenyl)-3-[cycloheptyl(methyl)sulfamoyl]benzamide] | 27.5 µM | 41 µM
